According to US20140128352A1, “COMPOUNDS AND METHODS FOR MODULATING MITOCHONDRIAL METABOLISM AND REACTIVE OXYGEN SPECIES PRODUCTION” (Buck Institute for Research on Aging, priority 2012, published 2014):
Where two headings read alike, the source gives them in different places.

Assays:
[1] = system: ubiquinone binding site of complex I (IQ); assay: High-throughput screen: ROS production from ubiquinone binding site of complex I (IQ), isolated skeletal muscle mitochondria; type: biochemical, rat; conditions: for % Reduction in ROS production (IQ): Table 2, 5 mM succinate, compounds 2.5 μM, percent change from DMSO, positive control −100%; for IQ: percent change in ROS from DMSO controls
[2] = biological target: T1, flavin binding site of complex I (IF) (Rattus norvegicus, UniProt Q5XIH3); assay: High-throughput screen: ROS production from flavin binding site of complex I (IF); type: biochemical; conditions: for inhibition at 2.5 µM: Table 7, read-out: IF; for inhibition at 2.5 µM / IF: percent change in ROS from DMSO controls
T1 construct: freshly isolated muscle mitochondria were assayed; from tissue; host or cells: rat skeletal muscle mitochondria (Wistar, Harlan Laboratories)
T1 sequence (Q5XIH3 21-464 limits assumed, one chain of several): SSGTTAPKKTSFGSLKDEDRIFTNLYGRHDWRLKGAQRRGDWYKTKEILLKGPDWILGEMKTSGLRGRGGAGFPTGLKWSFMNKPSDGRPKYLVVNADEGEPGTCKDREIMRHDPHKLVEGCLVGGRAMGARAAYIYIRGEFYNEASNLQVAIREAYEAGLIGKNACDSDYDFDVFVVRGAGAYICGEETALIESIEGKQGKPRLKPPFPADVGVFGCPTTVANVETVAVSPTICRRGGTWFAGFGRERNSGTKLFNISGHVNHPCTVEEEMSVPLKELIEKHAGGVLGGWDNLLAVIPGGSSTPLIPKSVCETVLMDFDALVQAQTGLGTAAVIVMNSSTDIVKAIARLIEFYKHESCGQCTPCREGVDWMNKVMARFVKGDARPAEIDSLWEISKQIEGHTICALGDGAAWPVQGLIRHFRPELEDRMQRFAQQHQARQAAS
Procedure: Skeletal muscle mitochondria were isolated from 5-8 week old female Wistar rats (Harlan Laboratories). Minced muscle was homogenized in buffer containing bacterial protease Type VIII prior to differential centrifugation to separate mitochondria from other tissue components. Unless otherwise stated, freshly isolated muscle mitochondria were assayed in buffer containing 120 mM KCl, 5 mM HEPES, 1 mM EGTA, 0.3% (w/v) bovine serum albumin. Where indicated, CaCl2 was added to yield a final free concentration of 250 nM calcium at pH 7.0 at 37° C.
Master screening plates were prepared using a Biomek FX liquid handling workstation (Beckman) to transfer 1 μL of each compound into individual wells on 96-well storage plates (80 compounds per plate). […] Just prior to use, plates were brought to room temperature and diluted 300-fold with standard buffer (13.3X=33.3 μM). To monitor the performance of each assay throughout screening and to provide intra-plate normalization reference points, DMSO negative controls and known mitochondrial inhibitor positive controls were included on each Master compound plate.
Total amounts of superoxide and H2O2 production were determined fluorometrically as H2O2, without distinguishing between them, in the presence of exogenous superoxide dismutase (25 units/mL final), horseradish peroxidase (1 unit/mL final), and Amplex UltraRed (25 μM final) as described (Affourtit, C. et al. (2012) Measurement of proton leak and electron leak in isolated mitochondria. Methods Mol. Biol. 810: 165-82). Just prior to use, a bulk 3.3X solution was made in standard buffer and distributed into a 2 mL deep well 96-well transfer plate.
To assess the effects of a compound on ROS production from the flavin binding site of complex I (IF), Start Solution containing 5 mM glutamate, 5 mM malate and 4 μM rotenone was distributed into standard 96-well transfer plates. A Biomek FX workstation was programmed to dispense solutions into black 96-well assay plates. Solutions were dispensed to all assay plates in the following order: ROS Detection solution described in Example 3, Mitochondria solution described in Example 1 to a final concentration of 0.3 mg/ml, and Compound dilutions described in Example 2. Duplicate assay plates were made and each was initiated by the addition of 3.3X Start solution containing 5 mM glutamate, 5 mM malate and 4 μM rotenone. Plates were incubated in the dark at room temperature for 30-40 minutes before acquiring endpoint fluorescence using a Victor 3V plate reader (Perkin Elmer) equipped with 550/590 nm excitation/emission filters.
The fluorescence values in each well were scaled as the percent change from the intra-plate DMSO controls with the appropriate inhibitor positive controls defined as −100%. Following initial scaling, intra-plate normalized values were subjected to Tukey's two-way median polish to remove row and column dependent positional effects (Malo, N. et al. (2006) Statistical practice in high-throughput screening data analysis. Nat. Biotechnol. 24(2): 167-75).

[3] = biological target: T2, outer ubiquinone binding site of complex III (IIIQO) (Rattus norvegicus, UniProt P00159+P20788); assay: High-throughput screen: ROS production from outer ubiquinone binding site of complex III (IIIQO); type: biochemical; conditions: for inhibition at 2.5 µM / IIIQO: percent change in ROS from DMSO controls; for IIIQO: Table 8
T2 construct: freshly isolated muscle mitochondria were assayed; from tissue; host or cells: rat skeletal muscle mitochondria (Wistar, Harlan Laboratories)

[4] = biological target: T3, succinate dehydrogenase/complex II (SDH) (Rattus norvegicus, UniProt P21913+Q641Z9+Q6PCT8+Q920L2); assay: High-throughput screen: ROS production from succinate dehydrogenase/complex II (SDH); type: biochemical; conditions: percent change in ROS from DMSO controls; for inhibition at 2.5 µM: Table 7
T3 construct: freshly isolated muscle mitochondria were assayed; from tissue; host or cells: rat skeletal muscle mitochondria (Wistar, Harlan Laboratories)
T3 sequence (Q920L2 35-656): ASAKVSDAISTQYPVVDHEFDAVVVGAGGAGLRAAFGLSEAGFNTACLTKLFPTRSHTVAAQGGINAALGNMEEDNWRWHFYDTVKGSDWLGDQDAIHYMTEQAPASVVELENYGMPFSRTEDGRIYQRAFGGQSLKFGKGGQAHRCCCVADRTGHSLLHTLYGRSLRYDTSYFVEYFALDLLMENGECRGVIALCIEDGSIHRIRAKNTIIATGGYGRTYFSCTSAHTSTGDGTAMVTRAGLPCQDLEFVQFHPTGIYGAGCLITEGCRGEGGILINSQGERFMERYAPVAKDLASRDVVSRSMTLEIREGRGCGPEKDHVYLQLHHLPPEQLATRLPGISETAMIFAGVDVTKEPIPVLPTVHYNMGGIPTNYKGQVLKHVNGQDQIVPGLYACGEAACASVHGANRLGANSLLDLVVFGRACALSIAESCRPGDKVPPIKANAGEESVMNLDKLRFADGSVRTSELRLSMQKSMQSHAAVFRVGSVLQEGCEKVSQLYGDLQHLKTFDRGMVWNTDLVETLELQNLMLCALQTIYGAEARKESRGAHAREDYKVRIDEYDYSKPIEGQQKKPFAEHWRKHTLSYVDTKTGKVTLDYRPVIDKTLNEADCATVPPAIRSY
T3 sequence (P21913 31-282): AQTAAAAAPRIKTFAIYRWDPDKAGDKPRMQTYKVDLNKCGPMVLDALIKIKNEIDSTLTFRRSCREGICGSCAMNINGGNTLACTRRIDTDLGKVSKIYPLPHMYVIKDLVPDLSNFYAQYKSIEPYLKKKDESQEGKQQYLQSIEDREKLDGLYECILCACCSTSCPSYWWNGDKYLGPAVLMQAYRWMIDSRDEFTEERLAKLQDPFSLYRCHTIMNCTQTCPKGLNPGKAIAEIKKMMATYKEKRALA
T3 sequence (Q641Z9 30-169 limits assumed): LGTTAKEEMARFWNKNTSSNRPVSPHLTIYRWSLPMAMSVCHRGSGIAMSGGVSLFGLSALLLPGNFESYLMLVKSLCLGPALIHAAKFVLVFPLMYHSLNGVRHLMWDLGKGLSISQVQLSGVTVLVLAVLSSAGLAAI
T3 sequence (Q6PCT8 57-159): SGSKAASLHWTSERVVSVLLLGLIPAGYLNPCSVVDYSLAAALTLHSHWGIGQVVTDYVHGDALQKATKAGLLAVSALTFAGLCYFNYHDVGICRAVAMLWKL

[5] = biological target: T4, glycerol-3-phosphate dehydrogenase (GPDH) (Rattus norvegicus, UniProt P35571); assay: High-throughput screen: ROS production from glycerol-3-phosphate dehydrogenase (GPDH); type: biochemical; set-up: inhibition: dose or concentration left out as unconfirmed; conditions: for inhibition: Table 7; for inhibition / GPDH: percent change in ROS from DMSO controls
T4 construct: The activity of GPDH in intact mitochondria (0.3 mg/mL) was measured; from tissue; host or cells: rat skeletal muscle mitochondria (Wistar, Harlan Laboratories)
T4 sequence (P35571 43-727): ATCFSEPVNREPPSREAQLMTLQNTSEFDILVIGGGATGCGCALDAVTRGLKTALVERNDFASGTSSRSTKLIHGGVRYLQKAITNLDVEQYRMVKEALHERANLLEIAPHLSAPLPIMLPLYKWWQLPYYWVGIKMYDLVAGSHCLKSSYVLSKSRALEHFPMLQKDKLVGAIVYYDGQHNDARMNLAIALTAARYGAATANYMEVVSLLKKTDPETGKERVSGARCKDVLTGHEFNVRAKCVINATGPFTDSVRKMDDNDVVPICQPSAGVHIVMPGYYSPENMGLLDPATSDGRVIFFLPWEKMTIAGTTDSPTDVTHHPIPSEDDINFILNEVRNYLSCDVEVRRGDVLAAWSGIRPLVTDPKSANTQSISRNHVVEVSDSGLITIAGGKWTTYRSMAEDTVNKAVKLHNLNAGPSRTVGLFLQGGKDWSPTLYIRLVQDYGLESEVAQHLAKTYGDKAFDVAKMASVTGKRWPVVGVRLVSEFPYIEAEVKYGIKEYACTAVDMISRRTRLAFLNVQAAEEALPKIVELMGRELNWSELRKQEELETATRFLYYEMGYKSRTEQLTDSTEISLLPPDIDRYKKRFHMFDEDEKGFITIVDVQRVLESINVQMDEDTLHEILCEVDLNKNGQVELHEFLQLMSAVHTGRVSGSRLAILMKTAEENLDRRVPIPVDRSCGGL

[6] = system: mitochondrial membrane potential (ΔΨm); assay: Membrane potential (ΔΨm) counterscreen with TMRM; conditions: malate, nigericin

SMILES	% Reduction in ROS production (IQ) [1] [%]	IQ ([1]; Table 7)	IQ ([1]; Table 8)	IQ ([1]; Table 9)	inhibition at 2.5 µM [2] [%]	IF ([2]; Table 8)	IF ([2]; Table 9)	inhibition at 2.5 µM ([3]; Table 7, read-out: IIIQO) [%]	IIIQO [3]	inhibition at 2.5 µM ([3]; Table 9, read-out: IIIQo) [%]	inhibition at 2.5 µM [4] [%]	SDH ([4]; Table 8)	SDH ([4]; Table 9)	inhibition [5] [%]	GPDH ([5]; Table 8)	GPDH ([5]; Table 9)	ΔΨm ([6]; Table 8, glutamate)	ΔΨm ([6]; Table 9, glutamate)	further results
O=S(=O)(Nc1ccc(Br)cc1)c1ccc(C2CCCCC2)cc1 [Compound 8]	−36.3	−36.3	−36.3	−36.3	4.2	−4.2	−4.2	-7.6	7.6	-7.6	-0.4	0.4	0.4	1.8	−1.8	−1.8	−0.3	−0.3	
Cc1ccccc1NS(=O)(=O)c1ccc(C2CCCCC2)cc1 [Compound 9]	−31.2	−31.2	−31.2	−31.2	-0.4	0.4	0.4	2.7	−2.7	2.7	-0.3	0.3	0.3	-1	1.0	1.0	−0.1	−0.1	
CC(=O)Nc1ccc(S(=O)(=O)Nc2cccc(C)c2)cc1 [Compound 10]	−24.1	−24.1	−24.1	−24.1	-3.3	3.3	3.3	2.8	−2.8	2.8	-1	1.0	1.0	4.3	−4.3	−4.3	−0.2	−0.2	
COc1ccc(NS(=O)(=O)c2cccc(C(=O)Nc3ccc(C)cc3)c2)cc1 [Compound 11]	−23.8	−23.8	−23.8	−23.8	-3.3	3.3	3.3	1.9	−1.9	1.9	0.2	−0.2	−0.2	5	−5.0	−5.0	−0.4	−0.4	
Cc1ccccc1NS(=O)(=O)c1ccc(-c2ccc(S(=O)(=O)Nc3ccccc3C)cc2)cc1 [Compound 12]	−20.7	−20.7	−20.7	−20.7	1.7	−1.7	−1.7	-0.2	0.2	-0.2	0.1	−0.1	−0.1	-0.5	0.5	0.5	−0.5	−0.5	
CCN1CCN(C/C=C/c2ccc(N(C)C)cc2)CC1 [Compound 48]		−2.9	−2.9	−2.9	6.5	−6.5	−6.5	5.7	−5.7	5.7				13.4	−13.4	−13.4	0.0	0.0	inhibition at 2.5 µM ([5]; Table 6, 25 mM glycerol phosphate, rotenone, antimycin A, malonate, myxothiazol, compounds 2.5 μM, scaled to IQ positive controls, read-out: % Reduction in ROS Production (GPDH)): 13.4%
CCCCN(Cc1ccccc1)Cc1cc(OC)c(OC)cc1[N+](=O)[O-] [Compound 79]			0			−17			−19						−1		1		% Reduction in ROS production (IF) ([2]; Table 3, 5 mM glutamate, 5 mM malate, 4 μM rotenone, compounds 2.5 μM, percent change from DMSO, positive control −100%): −17%; % Reduction in ROS production (IIIQO) ([3]; Table 4, 5 mM succinate, 4 μM rotenone, 2.5 μM antimycin A, compounds 2.5 μM, percent change from DMSO): −19%
